Experimental data reported in patent US11845751B2, “Triazolotriazine derivatives as A2A receptor antagonists” (ZHEJIANG VIMGREEN PHARMACEUTICALS, LTD., priority 2018, dated 2023).

Each molecule was assayed against T1, A2AR (hADORA2A-HEK293 cells) (Homo sapiens, UniProt P29274) (assay: functional cAMP production assay: NECA stimulation of cAMP production and its inhibition by A2AR antagonists). Conditions: A2AR-expressing HEK293 cells (hADORA2A-HEK293); NECA at EC80; TR-FRET cAMP readout; read-out: A2AR Potency (IC50, inhibition of NECA-stimulated cAMP production).
T1 construct: expressed in transfected cells; host or cells: HEK293 (hADORA2A-HEK293)
T1 sequence (P29274 whole entry): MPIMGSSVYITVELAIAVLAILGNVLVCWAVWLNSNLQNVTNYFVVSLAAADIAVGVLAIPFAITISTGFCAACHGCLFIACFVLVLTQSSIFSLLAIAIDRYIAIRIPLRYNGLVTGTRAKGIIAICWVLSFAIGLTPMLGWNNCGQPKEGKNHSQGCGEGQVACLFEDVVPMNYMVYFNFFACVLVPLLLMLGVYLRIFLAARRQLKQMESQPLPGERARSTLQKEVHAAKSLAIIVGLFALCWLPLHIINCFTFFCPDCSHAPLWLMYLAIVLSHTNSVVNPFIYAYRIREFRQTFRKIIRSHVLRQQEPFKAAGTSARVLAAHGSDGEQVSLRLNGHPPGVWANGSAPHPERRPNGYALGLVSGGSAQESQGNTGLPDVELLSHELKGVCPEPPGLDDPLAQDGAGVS
Type: cell-based
Protocol: The antagonistic activities of the triazolotriazine derivatives of the present invention were measured in a functional cAMP production assay. The assay consists of NECA stimulation of cAMP production and its inhibition by A2AR antagonists in A2AR-expressing HEK293 cells (hADORA2A-HEK293). All cells were cultured in complete medium at 37° C. in 5% CO2. The cells were detached with pancreatin and collected at 200 g for 5 min. After resuspending the cells in fresh complete medium, the cell viability is counted using the trypan blue exclusion method. […] After the cells were diluted with Hank's buffered saline solution containing HEPES (5 mM), BSA stabilizer (0.1%) and […] Rolipram (10 μM), cells were loaded into white opaque 384-well plates (˜500 cells/well, 10 μl/well) and incubated with test compound at a suitable concentration range (11 concentrations) for 20 min at room temperature. Then the A2A receptor agonist NECA (final concentration=EC80, which was determined in the same experiment slightly earlier) was added to the sample and the mixture was incubated again for 30 min at 37° C. […] The inhibition rate (%) was calculated according to the following formula. The IC50 values were calculated from concentration-inhibition (%) curves after log transformation.

Question: For Nc1nc(NCCc2ccc(OCC3CCN(Cc4cccnc4)C3)cc2)nc2nc(-c3ccco3)nn12 (stereo in doubt) [Example 283, (S)-2-(Furan-2-yl)-N5-(4-((1-(pyridin-3-ylmethyl)pyrrolidin-3-yl)methoxy)phenethyl)-[1,2,4]triazolo[1,5-a][1,3,5]triazine-5,7-diamine], which IC50 is on record?
Answer: 43.2 nM

Question: How did the IC50 turn out when CN(C)CCOc1ccc(CCNc2nc(N)n3nc(-c4ccco4)nc3n2)cc1 [Example 13, N5-(4-(2-(Dimethylamino)ethoxy)phenethyl)-2-(furan-2-yl)-[1,2,4]triazolo[1,5-α][1,3,5]-triazine-5,7-diamine] was run?
Answer: 18 nM

Question: Nc1nc(NCCc2ccc(OCCN3CCCC3)cc2)nc2nc(-c3ccco3)nn12 [Example 16, 2-(Furan-2-yl)-N5-(4-(2-(pyrrolidin-1-yl)ethoxy)phenethyl)-[1,2,4]triazolo[1,5-α][1,3,5]-triazine-5,7-diamine] was tested. Which IC50 did it give?
Answer: 24 nM

Question: Nc1nc(NCCc2ccc(OCCCN3CCCC3)cc2)nc2nc(-c3ccco3)nn12 [Example 19, 2-(Furan-2-yl)-N5-(4-(3-(pyrrolidin-1-yl)propoxy)phenethyl)-[1,2,4]triazolo[1,5-α][1,3,5]-triazine-5,7-diamine] was tested. Which IC50 did it give?
Answer: 29 nM

Question: How did the IC50 turn out when Nc1nc(NCCc2ccc(OCc3ccccn3)cc2)nc2nc(-c3ccco3)nn12 [Example 26, 2-(Furan-2-yl)-N5-(4-(pyridin-2-ylmethoxy)phenethyl)-[1,2,4]triazolo[1,5-α][1,3,5]triazine-5,7-diamine] was run?
Answer: 8 nM

Question: How did the IC50 turn out when Nc1nc(NCCc2ccc(OCc3ccncc3)cc2)nc2nc(-c3ccco3)nn12 [Example 29, 2-(Furan-2-yl)-N5-(4-(pyridin-4-ylmethoxy)phenethyl)-[1,2,4]triazolo[1,5-α][1,3,5]triazine-5,7-diamine] was run?
Answer: 7 nM

Question: With Nc1nc(NCCc2ccc(OCc3cccnc3)cc2)nc2nc(-c3ccco3)nn12 [Example 32, 2-(Furan-2-yl)-N5-(4-(pyridin-3-ylmethoxy)phenethyl)-[1,2,4]triazolo[1,5-α][1,3,5]triazine-5,7-diamine] as the molecule, how does the IC50 read?
Answer: 8 nM

Question: With Nc1nc(NCCc2ccc(OCCCc3ccncc3)cc2)nc2nc(-c3ccco3)nn12 [Example 36, 2-(Furan-2-yl)-N5-(4-(3-(pyridin-4-yl)propoxy)phenethyl)-[1,2,4]triazolo[1,5-α][1,3,5]-triazine-5,7-diamine] as the molecule, how does the IC50 read?
Answer: 11 nM

Question: For Nc1nc(NCCc2ccc(OCCCc3cccnc3)cc2)nc2nc(-c3ccco3)nn12 [Example 40, 2-(Furan-2-yl)-N5-(4-(3-(pyridin-3-yl)propoxy)phenethyl)-[1,2,4]triazolo[1,5-α][1,3,5]-triazine-5,7-diamine], which IC50 is on record?
Answer: 11 nM

Question: With Nc1nc(NCCc2c[nH]cn2)nc2nc(-c3ccco3)nn12 [Example 42, N5-(2-(1H-Imidazol-4-yl)ethyl)-2-(furan-2-yl)-[1,2,4]triazolo[1,5-α][1,3,5]triazine-5,7-diamine] as the molecule, how does the IC50 read?
Answer: 129 nM

Question: Nc1nc(NCCc2ccncn2)nc2nc(-c3ccco3)nn12 [Example 44, 2-(Furan-2-yl)-N5-(2-(pyrimidin-4-yl)ethyl)-[1,2,4]triazolo[1,5-α][1,3,5]triazine-5,7-diamine] was tested. Which IC50 did it give?
Answer: 63.8 nM

Question: How did the IC50 turn out when Nc1nc(NCCc2ccc(OCCN3CCCCCC3)cc2)nc2nc(-c3ccco3)nn12 [Example 51, N5-(4-(2-(Azepan-1-yl)ethoxy)phenethyl)-2-(furan-2-yl)-[1,2,4]triazolo[1,5-α][1,3,5]triazine-5,7-diamine] was run?
Answer: 25.4 nM

Question: For Nc1nc(NCCc2ccc(OCCCN3CCCCC3)cc2)nc2nc(-c3ccco3)nn12 [Example 54, 2-(Furan-2-yl)-N5-(4-(3-(piperidin-1-yl)propoxy)phenethyl)-[1,2,4]triazolo[1,5-α][1,3,5]-triazine-5,7-diamine], which IC50 is on record?
Answer: 19.2 nM

Question: For COCCOc1ccc(CCNc2nc(N)n3nc(-c4ccco4)nc3n2)cc1 [Example 57, 2-(Furan-2-yl)-N5-(4-(2-methoxyethoxy)phenethyl)-[1,2,4]triazolo[1,5-α][1,3,5]triazine-5,7-diamine], which IC50 is on record?
Answer: 7 nM
